According to patent US20060069132A1, “Azolecarboxamide herbicides” (priority 2004, published 2006):

Key:
barnyardgrass [1] = assay: Test A pre-/postemergence herbicide test; assay type: in vivo, Echinochloa crus-galli
How it was run: (§1)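 Visual injury rating on a 0–100 scale (0 no effect, 100 complete control) versus untreated controls, about ten days after treatment in greenhouse. Pre: directed soil spray onto seeded sandy loam. Post: spray to runoff on plants 2–10 cm tall at one- to two-leaf stage.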

giant foxtail [2] = assay: Test B pre-/postemergence herbicide test; assay type: in vivo, Setaria faberi; conditions: for Foxtail, Giant plant response rating: postemergence
How it was run: (§2)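 Herbicidal effect was judged by eye on a 0–100 scale after plants stood 13 to 15 days in the greenhouse following pre- or postemergence treatment with surfactant-containing formulations.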

blackgrass = assay: Test B postemergence herbicide test; assay type: in vivo, Alopecurus myosuroides; conditions: postemergence
How it was run: (§3)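 Formulated test chemicals went onto postemergence plants measuring 2 to 18 cm, at one to four leaves. For the paddy assay, species had reached two leaves. Scoring took place 13–15 days later by eye, relative to untreated plants, using 0 for no effect up to 100 for full control.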

large crabgrass [3] = assay: Test A pre-/postemergence herbicide test; assay type: in vivo, Digitaria sanguinalis
How it was run: as §1

cocklebur = assay: Test B pre-/postemergence herbicide test; assay type: in vivo, Xanthium strumarium; conditions: for Cocklebur plant response rating: postemergence
How it was run: (§4)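 Plants compared with untreated controls 13–15 days post-treatment and given a visual 0–100 injury score. Applications: preemergence to seeds; postemergence at 1- to 4-leaf (2–18 cm); paddy species flooded, 2-leaf stage. Vehicle non-phytotoxic, surfactant included.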

lambsquarters = assay: Test B pre-/postemergence herbicide test; assay type: in vivo, Chenopodium album; conditions: postemergence
How it was run: as §2

velvetleaf [4] = assay: Test B pre-/postemergence herbicide test; assay type: in vivo, Abutilon theophrasti; conditions: for Velvetleaf plant response rating: postemergence
How it was run: as §2

morningglory [5] = assay: Test B pre-/postemergence herbicide test; assay type: in vivo, Ipomoea coccinea; conditions: for Morningglory plant response rating: postemergence
How it was run: as §4

pigweed = assay: Test B pre-/postemergence herbicide test; assay type: in vivo, Amaranthus retroflexus; conditions: for Pigweed plant response rating: postemergence
How it was run: as §2

wheat = assay: Test B postemergence herbicide test; assay type: in vivo, Triticum aestivum; design: key to Wheat plant response rating: 0 = no effect, 100 = complete control; conditions: postemergence
How it was run: (§5)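 Treated at 2-leaf (paddy) or 1–4-leaf, 2–18 cm (postemergence); greenhouse 13–15 d; visual score vs control, 0 none to 100 complete control; dash = not tested.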

ducksalad = assay: Test B flooded paddy test; assay type: in vivo, Heteranthera limosa; conditions: 1000 g ai/ha, scale 0 to 100 (0 no effect, 100 complete control)
How it was run: as §3

barnyardgrass [6] = assay: Test B flooded paddy test; assay type: in vivo, Echinochloa crus-galli; conditions: 1000 g ai/ha, scale 0 to 100 (0 no effect, 100 complete control)
How it was run: as §3

barnyardgrass [7] = assay: Test B pre-/postemergence herbicide test; assay type: in vivo, Echinochloa crus-galli; conditions: for Barnyardgrass plant response rating: postemergence
How it was run: as §4

wild oat = assay: Test B postemergence herbicide test; assay type: in vivo, Avena fatua; conditions: postemergence
How it was run: as §5

[8] = system: small flower umbrella sedge; assay: Test B flooded paddy test; assay type: in vivo, Cyperus difformis; conditions: 1000 g ai/ha, scale 0 to 100 (0 no effect, 100 complete control)
How it was run: as §3

giant foxtail [9] = assay: Test A pre-/postemergence herbicide test; assay type: in vivo, Setaria faberi
How it was run: as §1

large crabgrass [10] = assay: Test B pre-/postemergence herbicide test; assay type: in vivo, Digitaria sanguinalis; conditions: for Crabgrass, Large plant response rating: postemergence
How it was run: as §2

rice [11] = assay: Test B pre-/postemergence herbicide test; assay type: in vivo, Oryza sativa; conditions: 0 = no effect, 100 = complete control, preemergence
How it was run: as §2

Surinam grass = assay: Test B pre-/postemergence herbicide test; assay type: in vivo, Urochloa decumbens; conditions: for Surinam Grass plant response rating: postemergence
How it was run: as §2

velvetleaf [12] = assay: Test A pre-/postemergence herbicide test; assay type: in vivo, Abutilon theophrasti
How it was run: as §1

morningglory [13] = assay: Test A pre-/postemergence herbicide test; assay type: in vivo, Ipomoea spp.
How it was run: as §1

redroot pigweed = assay: Test A pre-/postemergence herbicide test; assay type: in vivo, Amaranthus retroflexus
How it was run: as §1

rice [14] = assay: Test B flooded paddy test; assay type: in vivo, Oryza sativa; conditions: 1000 g ai/ha, scale 0 to 100 (0 no effect, 100 complete control)
How it was run: as §5

corn = assay: Test B pre-/postemergence herbicide test; assay type: in vivo, Zea mays; conditions: for Corn plant response rating: postemergence
How it was run: as §2

[15] = Postemergence, 500 g ai/ha, 0 to 100 scale, 0 no effect, 100 complete control
[16] = Postemergence, 2000 g ai/ha, 0 to 100 scale, 0 no effect, 100 complete control
[17] = Preemergence, 2000 g ai/ha, visual rating, 0 to 100 scale (0 no effect, 100 complete control)
[18] = preemergence, 500 g ai/ha, visual injury, 0 to 100 scale (0 no effect, 100 complete control)
[19] = 125 g ai/ha, 0 = no effect, 100 = complete control, preemergence
[20] = 500 g ai/ha, visual rating, 0 = no effect, 100 = complete control, preemergence
[21] = 125 g ai/ha, visual rating, scale 0 (no effect) to 100 (complete control)
[22] = 500 g ai/ha, scale 0 to 100, 0 is no effect, 100 is complete control

## CCn1nc(C(C)(C)C)cc1C(=O)Nc1cc(C(=O)N(C)C)c(F)cc1F [Compound 270]
Barnyardgrass [1]; [15]
  Barnyardgrass plant response rating: 0
Barnyardgrass [1]; [16]
  Plant response rating, Barnyardgrass: 30
Barnyardgrass [1]; [17]
  Barnyardgrass plant response rating: 90
Barnyardgrass [1]; [18]
  Barnyardgrass plant response rating: 60
Giant foxtail [2]; [19]
  Foxtail, Giant plant response rating (0 to 100 scale): 0
Giant foxtail [2]; [20]
  Plant response rating, Foxtail, Giant: 50
Giant foxtail [2]; [21]
  Foxtail, Giant plant response rating: 0
Giant foxtail [2]; [22]
  Foxtail, Giant plant response rating: 0
blackgrass; [21]
  Blackgrass plant response rating: 0
blackgrass; [22]
  Blackgrass plant response rating: 20
Large crabgrass [3]; [15]
  Crabgrass, Large plant response rating: 0
Large crabgrass [3]; [16]
  Plant response rating, Crabgrass, Large: 10
Large crabgrass [3]; [17]
  Crabgrass, Large plant response rating: 35
Large crabgrass [3]; [18]
  Crabgrass, Large plant response rating: 5
cocklebur; [19]
  Cocklebur plant response rating (0 to 100 scale): 0
cocklebur; [20]
  Plant response rating, Cocklebur: 0
cocklebur; [21]
  Cocklebur plant response rating: 0
cocklebur; [22]
  Cocklebur plant response rating: 0
lambsquarters; [21]
  Lambsquarters plant response rating: 0
lambsquarters; [22]
  Lambsquarters plant response rating: 10
Velvetleaf [4]; [19]
  Velvetleaf plant response rating (0 to 100 scale): 50
Velvetleaf [4]; [20]
  Plant response rating, Velvetleaf: 70
Velvetleaf [4]; [21]
  Velvetleaf plant response rating: 0
Velvetleaf [4]; [22]
  Velvetleaf plant response rating: 0
Morningglory [5]; [19]
  Morningglory plant response rating (0 to 100 scale): 0
Morningglory [5]; [20]
  Plant response rating, Morningglory: 0
Morningglory [5]; [21]
  Morningglory plant response rating: 0
Morningglory [5]; [22]
  Morningglory plant response rating: 10
pigweed; [19]
  Pigweed plant response rating (0 to 100 scale): 0
pigweed; [21]
  Pigweed plant response rating: 0
pigweed; [22]
  Pigweed plant response rating: 0
wheat; [21]
  Wheat plant response rating: 0
wheat; [22]
  Wheat plant response rating: 0
ducksalad
  Ducksalad plant response rating: 70
Barnyardgrass [6]
  Barnyardgrass plant response rating: 50
Barnyardgrass [7]; [19]
  Barnyardgrass plant response rating (0 to 100 scale): 0
Barnyardgrass [7]; [20]
  Plant response rating, Barnyardgrass: 50
Barnyardgrass [7]; [21]
  Barnyardgrass plant response rating: 0
Barnyardgrass [7]; [22]
  Barnyardgrass plant response rating: 0
Wild oat; [21]
  Oat, Wild plant response rating: 0
Wild oat; [22]
  Oat, Wild plant response rating: 0
[8]
  Sedge, Umbrella plant response rating: 60
Giant foxtail [9]; [15]
  Foxtail, Giant plant response rating: 0
Giant foxtail [9]; [16]
  Plant response rating, Foxtail, Giant: 0
Giant foxtail [9]; [17]
  Foxtail, Giant plant response rating: 70
Giant foxtail [9]; [18]
  Foxtail, Giant plant response rating: 20
Large crabgrass [10]; [19]
  Crabgrass, Large plant response rating (0 to 100 scale): 0
Large crabgrass [10]; [20]
  Plant response rating, Crabgrass, Large: 20
Large crabgrass [10]; [21]
  Crabgrass, Large plant response rating: 0
Large crabgrass [10]; [22]
  Crabgrass, Large plant response rating: 0
Rice [11]; 125 g ai/ha
  Rice plant response rating (0 to 100 scale): 0
Rice [11]; 500 g ai/ha, visual rating
  Plant response rating, Rice: 60
Surinam grass; [19]
  Surinam Grass plant response rating (0 to 100 scale): 0
Surinam grass; [20]
  Plant response rating, Surinam Grass: 20
Surinam grass; [21]
  Surinam Grass plant response rating: 0
Surinam grass; [22]
  Surinam Grass plant response rating: 10
Velvetleaf [12]; [15]
  Velvetleaf plant response rating: 15
Velvetleaf [12]; [16]
  Plant response rating, Velvetleaf: 25
Velvetleaf [12]; [17]
  Velvetleaf plant response rating: 55
Velvetleaf [12]; [18]
  Velvetleaf plant response rating: 30
Morningglory [13]; [15]
  Morningglory plant response rating: 20
Morningglory [13]; [16]
  Plant response rating, Morningglory: 20
Morningglory [13]; [17]
  Morningglory plant response rating: 30
Morningglory [13]; [18]
  Morningglory plant response rating: 0
Redroot pigweed; [15]
  Pigweed plant response rating: 20
Redroot pigweed; [16]
  Plant response rating, Pigweed: 0
Redroot pigweed; [17]
  Pigweed plant response rating: 85
Redroot pigweed; [18]
  Pigweed plant response rating: 15
Rice [14]
  Rice plant response rating: 70
corn; [19]
  Corn plant response rating (0 to 100 scale): 0
corn; [20]
  Plant response rating, Corn: 50
corn; [21]
  Corn plant response rating: 0
corn; [22]
  Corn plant response rating: 10
